Numbers after ± are expanded uncertainties.
Legend:
[1] = molar heat capacity at constant pressure; details: 101.33 kPa, Small sample (50 mg) DSC
[2] = Molar enthalpy of transition or fusion; details: Crystal; DSC
[3] = Crystal; DTA

Cc1nc2n(c(=O)c1CCN1CCC(c3noc4cc(F)ccc34)CC1)CCCC2 [risperidone]
[1]
Details	molar heat capacity at constant pressure [J/K/mol]
270.1 K, Crystal	471 ± 12
275 K, Crystal	476 ± 13
280.1 K, Crystal	480 ± 12
284.9 K, Crystal	483 ± 12
290.1 K, Crystal	489 ± 12
294.9 K, Crystal	495 ± 12
300.1 K, Crystal	502 ± 12
304.9 K, Crystal	509 ± 12
310.1 K, Crystal	516 ± 12
314.9 K, Crystal	523 ± 12
320.1 K, Crystal	530 ± 12
324.9 K, Crystal	537 ± 12
330.1 K, Crystal	544 ± 12
334.9 K, Crystal	551 ± 13
340 K, Crystal	558 ± 13
345.1 K, Crystal	564 ± 13
350 K, Crystal	571 ± 13
355.1 K, Crystal	578 ± 13
359.9 K, Crystal	583 ± 13
365 K, Crystal	590 ± 13
370.1 K, Crystal	597 ± 13
375 K, Crystal	602 ± 13
380.1 K, Crystal	609 ± 13
384.9 K, Crystal	615 ± 14
390 K, Crystal	621 ± 14
394.9 K, Crystal	627 ± 14
400 K, Crystal	634 ± 14
405.1 K, Crystal	641 ± 14
409.9 K, Crystal	647 ± 14
430.1 K, Liquid	839 ± 14
434.9 K, Liquid	842 ± 14
440 K, Liquid	845 ± 14
445.1 K, Liquid	850 ± 14
449.9 K, Liquid	854 ± 14
453 K, Liquid	856 ± 14

Details	Molar enthalpy of transition or fusion [kcal/mol]	Normal melting temperature [°C]
[2]	10.5 ± 0.222	–
[3]	–	169.23 ± 0.63
